From the supplement of paper PMC10627819

Key:
[1] = test system: B. subtilis 168; assay: Bliss interaction score (quartile over a dose matrix) (fitness difference); higher = more antagonism (negative = synergy)
Method in brief: (§1)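 Each plate was normalised to the robust mean of its own no-drug wells, using OD595 at entry into stationary phase, with values capped at 1. This normalised growth is the fitness value. The Bliss score is the difference between observed and product-expected fitness, with single-drug fitness inferred from the combination data and quartiles taken over technical, biological and donor/recipient replicates.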

[2] = test system: S. pneumoniae D39V; assay: as above
Method in brief: as §1

[3] = test system: S. aureus Newman; assay: as above
Method in brief: as §1

[4] = test system: S. aureus DSM 20231; assay: as above
Method in brief: as §1

[5] = test system: S. pneumoniae D39V; assay: fitness (endpoint OD595 vs no drug) (fraction); higher = more growth
Method in brief: (§2)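 In 384-well plates at 37 °C, cultures began at OD595 0.01 in 30 µl, with 55 µl used for S. pneumoniae. OD595 readings every 30 min for 14 h were corrected by the first reading. Fitness divides the stationary-phase transition optical density by the robust mean of no-drug control wells. The result is capped at 1.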

[6] = test system: S. aureus Newman; assay: as above
Method in brief: as §2

[7] = test system: S. aureus DSM 20231; assay: as above
Method in brief: as §2
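Wherever Bliss interaction score (quartile over a dose matrix) is given: first quartile when negative (synergy) and third quartile when positive (antagonism).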

CO/N=C(\C(=O)N[C@@H]1C(=O)N2C(C(=O)[O-])=C(C[N+]3(C)CCCC3)CS[C@H]12)c1csc(N)n1 [Cefepime] + C[n+]1ccc(-c2cc[n+](C)cc2)cc1 [Paraquat]
Details | Bliss interaction score
[1] | -0.121
[2] | 0.0315
[3] | 0.0489
[4] | -0.0615

Details | fitness
[5], first compound 0.007 µg/mL, partner 1.5 µg/mL | 0.99
[5], first compound 0.007 µg/mL, partner 3 µg/mL | 0.996
[5], first compound 0.007 µg/mL, partner 6 µg/mL | 0.971
[5], first compound 0.014 µg/mL, partner 1.5 µg/mL | ≥ 1
[5], first compound 0.014 µg/mL, partner 3 µg/mL | ≥ 1
[5], first compound 0.014 µg/mL, partner 6 µg/mL | ≥ 1
[5], first compound 0.028 µg/mL, partner 1.5 µg/mL | 0.934
[5], first compound 0.028 µg/mL, partner 3 µg/mL | 0.917
[5], first compound 0.028 µg/mL, partner 6 µg/mL | 0.869
[6], first compound 0.125 µg/mL, partner 1.25 µg/mL | 0.901
[6], first compound 0.125 µg/mL, partner 2.5 µg/mL | 0.916
[6], first compound 0.125 µg/mL, partner 5 µg/mL | 0.898
[6], first compound 0.25 µg/mL, partner 1.25 µg/mL | 0.851
[6], first compound 0.25 µg/mL, partner 2.5 µg/mL | 0.854
[6], first compound 0.25 µg/mL, partner 5 µg/mL | 0.846
[6], first compound 0.5 µg/mL, partner 1.25 µg/mL | 0.768
[6], first compound 0.5 µg/mL, partner 2.5 µg/mL | 0.773
[6], first compound 0.5 µg/mL, partner 5 µg/mL | 0.839
[7], first compound 0.125 µg/mL, partner 1.25 µg/mL | 0.9
[7], first compound 0.125 µg/mL, partner 2.5 µg/mL | 0.888
[7], first compound 0.125 µg/mL, partner 5 µg/mL | 0.874
[7], first compound 0.25 µg/mL, partner 1.25 µg/mL | 0.889
[7], first compound 0.25 µg/mL, partner 2.5 µg/mL | 0.876
[7], first compound 0.25 µg/mL, partner 5 µg/mL | 0.821
[7], first compound 0.5 µg/mL, partner 2.5 µg/mL | 0.853
[7], first compound 0.5 µg/mL, partner 5 µg/mL | 0.837

fitness, [5], one replicate
Details | first compound 0.0078 µg/mL | first compound 0.0155 µg/mL | first compound 0.031 µg/mL
partner 1.5 µg/mL | 0.994 | 0.985 | 0.957
partner 3 µg/mL | ≥ 1 | ≥ 1 | 0.975
partner 6 µg/mL | ≥ 1 | ≥ 1 | ≥ 1

CO/N=C(\C(=O)N[C@@H]1C(=O)N2C(C(=O)[O-])=C(C[N+]3(C)CCCC3)CS[C@H]12)c1csc(N)n1 [Cefepime] + COc1ccc(C[C@H](N)C(=O)N[C@H]2[C@@H](O)[C@H](n3cnc4c(N(C)C)ncnc43)O[C@@H]2CO)cc1 [Puromycin]
Details | Bliss interaction score
[1] | 0.0941
[2] | 0.132
[3] | -0.0741
[4] | 0.0605

Details | fitness
[5], first compound 0.007 µg/mL, partner 1 µg/mL | ≥ 1
[5], first compound 0.007 µg/mL, partner 2 µg/mL | 0.993
[5], first compound 0.007 µg/mL, partner 4 µg/mL | 0.873
[5], first compound 0.014 µg/mL, partner 1 µg/mL | ≥ 1
[5], first compound 0.014 µg/mL, partner 2 µg/mL | ≥ 1
[5], first compound 0.014 µg/mL, partner 4 µg/mL | 0.876
[5], first compound 0.028 µg/mL, partner 1 µg/mL | 0.961
[5], first compound 0.028 µg/mL, partner 2 µg/mL | 0.944
[5], first compound 0.028 µg/mL, partner 4 µg/mL | 0.771
[6], first compound 0.125 µg/mL, partner 0.39 µg/mL | 0.898
[6], first compound 0.125 µg/mL, partner 0.78 µg/mL | 0.94
[6], first compound 0.125 µg/mL, partner 1.56 µg/mL | 0.9
[6], first compound 0.25 µg/mL, partner 0.39 µg/mL | 0.831
[6], first compound 0.25 µg/mL, partner 0.78 µg/mL | 0.865
[6], first compound 0.25 µg/mL, partner 1.56 µg/mL | 0.865
[6], first compound 0.5 µg/mL, partner 0.39 µg/mL | 0.728
[6], first compound 0.5 µg/mL, partner 0.78 µg/mL | 0.764
[6], first compound 0.5 µg/mL, partner 1.56 µg/mL | 0.775
[7], first compound 0.125 µg/mL, partner 0.39 µg/mL | 0.867
[7], first compound 0.125 µg/mL, partner 0.78 µg/mL | ≥ 1
[7], first compound 0.125 µg/mL, partner 1.56 µg/mL | 0.965
[7], first compound 0.25 µg/mL, partner 0.39 µg/mL | 0.932
[7], first compound 0.25 µg/mL, partner 0.78 µg/mL | 0.951
[7], first compound 0.25 µg/mL, partner 1.56 µg/mL | 0.924
[7], first compound 0.5 µg/mL, partner 0.78 µg/mL | 0.952
[7], first compound 0.5 µg/mL, partner 1.56 µg/mL | 0.907

fitness, one replicate
Details | first compound 0.0078 µg/mL | first compound 0.0155 µg/mL | first compound 0.031 µg/mL | first compound 0.125 µg/mL | first compound 0.25 µg/mL | first compound 0.5 µg/mL
[5], partner 1 µg/mL | 0.979 | 0.896 | 0.42 | – | – | –
[5], partner 2 µg/mL | 0.927 | 0.881 | 0.449 | – | – | –
[5], partner 4 µg/mL | 0.868 | 0.845 | 0.314 | – | – | –
[7], partner 3.12 µg/mL | – | – | – | 0.956 | 0.911 | 0.871
[7], partner 6.24 µg/mL | – | – | – | 0.781 | 0.857 | 0.716

CC1(C)S[C@@H]2[C@H](NC(=O)[C@H](N)c3ccc(O)cc3)C(=O)N2[C@H]1C(=O)O [Amoxicillin] + O=C(O[C@@H]1Cc2c(O)cc(O)cc2O[C@@H]1c1cc(O)c(O)c(O)c1)c1cc(O)c(O)c(O)c1 [EGCG]
Details | Bliss interaction score
[1] | 0.0413
[2] | -0.0544
[3] | 0.0679
[4] | 0.0606

fitness
Details | partner 12.5 µg/mL | partner 25 µg/mL | partner 50 µg/mL
[5], first compound 0.0008 µg/mL | 0.969 | 0.911 | 0.984
[5], first compound 0.0015 µg/mL | 0.92 | 0.922 | –
[5], first compound 0.003 µg/mL | 0.851 | 0.912 | 0.894
[6], first compound 0.0625 µg/mL | 0.751 | 0.714 | 0.638
[6], first compound 0.125 µg/mL | 0.757 | 0.741 | 0.681
[6], first compound 0.25 µg/mL | 0.729 | 0.751 | –
[7], first compound 0.0625 µg/mL | 0.528 | 0.516 | 0.513
[7], first compound 0.125 µg/mL | 0.363 | 0.411 | 0.376
[7], first compound 0.25 µg/mL | 0.171 | 0.0387 | 0.108
[7], first compound 0.5 µg/mL | 0.0001 | 0.0081 | 0

[5], first compound 0.006 µg/mL, one replicate
Details | fitness
partner 12.5 µg/mL | 0.412
partner 25 µg/mL | 0.545
partner 50 µg/mL | 0.601
